PubChem BioAssay AID504458 (NMMLSC, 2011)
Calls of active or inactive are those of the source. The rule behind the calls is not given here.

molecular target: General amino acid permease AGP1 (Saccharomyces cerevisiae (strain ATCC 204508 / S288c)) (UniProt P25376); test: AGP1-GFP fusion level modulation in yeast, dose response, TOR pathway, S. cerevisiae, flow cytometry, KU SAR set 2, multiplex (AID 504458); settings: flow cytometry fluorescence, 3 h
Sequence (P25376 whole entry, looked up, the tested form may be a part): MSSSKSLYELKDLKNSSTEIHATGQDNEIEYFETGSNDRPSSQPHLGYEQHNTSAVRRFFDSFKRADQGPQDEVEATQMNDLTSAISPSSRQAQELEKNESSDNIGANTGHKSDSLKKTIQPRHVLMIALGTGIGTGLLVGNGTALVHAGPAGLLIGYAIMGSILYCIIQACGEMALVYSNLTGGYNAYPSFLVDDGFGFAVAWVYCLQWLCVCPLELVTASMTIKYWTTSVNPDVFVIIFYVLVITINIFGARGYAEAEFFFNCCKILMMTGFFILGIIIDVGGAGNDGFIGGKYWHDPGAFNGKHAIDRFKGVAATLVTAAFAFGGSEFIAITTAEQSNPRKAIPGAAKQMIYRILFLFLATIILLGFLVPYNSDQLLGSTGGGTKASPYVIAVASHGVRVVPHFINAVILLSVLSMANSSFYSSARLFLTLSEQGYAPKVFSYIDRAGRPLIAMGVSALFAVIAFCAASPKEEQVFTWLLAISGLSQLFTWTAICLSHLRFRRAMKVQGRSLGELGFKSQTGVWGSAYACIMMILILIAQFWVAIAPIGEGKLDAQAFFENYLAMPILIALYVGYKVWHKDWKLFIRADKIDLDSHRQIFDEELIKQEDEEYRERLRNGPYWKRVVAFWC

| SMILES | EC50 |
| --- | --- |
| CNc1nc(N)cc(Nc2ccccc2F)n1 | inactive |
| CNc1nc(N)c([N+](=O)[O-])c(Nc2ccccc2Br)n1 | inactive |
| O=[N+]([O-])c1c(NC2CCCCC2)nc(NCc2ccccc2)nc1N1CCOCC1 | inactive |
| CNc1nc(N)cc(Nc2cccc(Cl)c2)n1 | inactive |
| COc1ccccc1-c1cc(Nc2cc(C)[nH]n2)nc(NCc2ccccc2)n1 | inactive |
| Cc1cc(Nc2cc(Nc3ccccc3)nc(NCc3ccccc3)n2)n[nH]1 | inactive |
| CCNc1nc(N)c([N+](=O)[O-])c(Nc2cccc(Cl)c2)n1 | 9.69 µM |
| CNc1nc(N)c([N+](=O)[O-])c(Nc2cccc(Oc3ccccc3)c2)n1 | inactive |
| Cc1cc(Nc2cc(-c3ccccc3)nc(NCc3ccccc3)n2)n[nH]1 | inactive |
| CCOC(=O)c1c(N)nc(NC)nc1Nc1cccc(F)c1 | inactive |
| COC(=O)c1cccc(-c2cc(Nc3cc(C)[nH]n3)nc(NCc3ccccc3)n2)c1 | inactive |
| CNc1nc(N)cc(Oc2cccc(Cl)c2)n1 | inactive |
| CNc1nc(N)c(C(=O)c2ccc(C)c(C)c2)c(Nc2cccc(Cl)c2)n1 | inactive |
| CNc1nc(NC)c([N+](=O)[O-])c(Nc2cccc(Cl)c2)n1 | inactive |
| CCNc1nc(NC2CCCCC2)c([N+](=O)[O-])c(N2CCOCC2)n1 | inactive |
